The values below come from US10442813B2, “Polymorphs of rucaparib camsylate and methods of making same” (RK Pharma Solutions LLC, priority 2018, dated 2019).

Structures can show the parent of a compound that is named as a salt. Where two headings read alike, the source gives them in different places. Some results are limits rather than exact numbers.

The data set is described as follows: Solubility of rucaparib camsylate Form beta in USP standard buffers adjusted to different pHs, 37° C. Format: physicochemical. The procedure:
The solubility of rucaparib camsylate Form beta was investigated in USP standard buffers adjusted to different pHs. For pH 1.2, the buffer solution included 3.73 g of potassium chloride dissolved in 100 ml of water which was mixed with […] of 0.2 M hydrochloric acid. Water was added to bring the volume to 1000 ml. For pH 4.5, the buffer solution included 2.99 g of sodium acetate dissolved in 100 ml of water which was mixed with 14 ml of 2 N acetic acid. Water was added to bring the volume to 1000 ml. For pH 6.0, the buffer preparation included 6.80 g of potassium phosphate dissolved in 100 ml of water which was mixed with 28 ml of 0.2 M sodium hydroxide. Water was added to bring the volume to 1000 ml. For pH 6.8, the buffer preparation included 6.80 g of potassium phosphate dissolved in 100 ml of water, which was mixed with 112 ml of 0.2 M sodium hydroxide. Water was added to volume of 1000 ml. For pH 8.0, the buffer preparation included 3.09 of boric acid and 3.73 g of potassium chloride dissolved in 100 ml of water, which was mixed with 19.5 ml of 0.2 sodium hydroxide. Water was added to bring volume to 1000 ml.

Regarding `CNCc1ccc(-c2[nH]c3cc(F)cc4c3c2CCNC4=O)cc1` [Rucaparib Form beta, 8-fluoro-2-{4-[(methylamino)methyl]phenyl}-1,3,4,5-tetrahydro-6H-azepino[5,4,3-cd]indol-6-one ((1S,4R)-7,7dimethyl-2-oxobicyclo[2.2.1]hept-1-yl)methanesulfonic acid salt], the solubility result is, setting by setting: (USP buffer pH 8.0, 37° C.) “Very slightly soluble”; (USP buffer pH 8.0, 37° C., listed as rucaparib camsylate Form beta) “slightly soluble”; (USP standard buffer pH 1.2, simulated gastric fluid, thermodynamic from solid, USP buffer pH 1.2, 37° C., read-out: Solubility) less than 100 µg/mL; (USP standard buffer pH 4.5, aqueous buffer, thermodynamic from solid, USP buffer pH 4.5, 37° C., read-out: Solubility) less than 100 µg/mL; (USP standard buffer pH 6.0, aqueous buffer, thermodynamic from solid, USP buffer pH 6.0, 37° C., read-out: Solubility) less than 100 µg/mL; (USP standard buffer pH 6.8, aqueous buffer, thermodynamic from solid, USP buffer pH 6.8, 37° C., read-out: Solubility) less than 100 µg/mL. The solubility entry reads like this: (most pH values (all tested except pH 8)) “practically insoluble”; (thermodynamic from solid, Water, 37° C., read-out: Solubility) less than 100 µg/mL.

For orientation: solubility means the dissolved amount per volume that the medium holds.
